Where two headings read alike, the source gives them in different places.

Consider 1 compound from patent US11572590B2, “Methods for evaluating tumor cell spheroids using 3D microfluidic cell culture device” (Dana-Farber Cancer Institute, Inc., priority 2017, dated 2023).

Assay in all cases: SelectScreen Kinase Profiling, single point inhibition and IC50 for off-target kinases
Format in all cases: biochemical

Test [1] has as its target off-target kinases (Homo sapiens, UniProt P00519, Q252H). The conditions noted are these: ABL1 Q252H, LanthaScreen Binding.
Test [2] deals with off-target kinases (Homo sapiens, UniProt O00443). The conditions noted are these: PIK3C2A (PI3K-C2 alpha); Cmpd1 1000 μM; ATP Km app; Adapta.
Sequence of off-target kinases (Homo sapiens, UniProt O00443) (O00443 whole entry): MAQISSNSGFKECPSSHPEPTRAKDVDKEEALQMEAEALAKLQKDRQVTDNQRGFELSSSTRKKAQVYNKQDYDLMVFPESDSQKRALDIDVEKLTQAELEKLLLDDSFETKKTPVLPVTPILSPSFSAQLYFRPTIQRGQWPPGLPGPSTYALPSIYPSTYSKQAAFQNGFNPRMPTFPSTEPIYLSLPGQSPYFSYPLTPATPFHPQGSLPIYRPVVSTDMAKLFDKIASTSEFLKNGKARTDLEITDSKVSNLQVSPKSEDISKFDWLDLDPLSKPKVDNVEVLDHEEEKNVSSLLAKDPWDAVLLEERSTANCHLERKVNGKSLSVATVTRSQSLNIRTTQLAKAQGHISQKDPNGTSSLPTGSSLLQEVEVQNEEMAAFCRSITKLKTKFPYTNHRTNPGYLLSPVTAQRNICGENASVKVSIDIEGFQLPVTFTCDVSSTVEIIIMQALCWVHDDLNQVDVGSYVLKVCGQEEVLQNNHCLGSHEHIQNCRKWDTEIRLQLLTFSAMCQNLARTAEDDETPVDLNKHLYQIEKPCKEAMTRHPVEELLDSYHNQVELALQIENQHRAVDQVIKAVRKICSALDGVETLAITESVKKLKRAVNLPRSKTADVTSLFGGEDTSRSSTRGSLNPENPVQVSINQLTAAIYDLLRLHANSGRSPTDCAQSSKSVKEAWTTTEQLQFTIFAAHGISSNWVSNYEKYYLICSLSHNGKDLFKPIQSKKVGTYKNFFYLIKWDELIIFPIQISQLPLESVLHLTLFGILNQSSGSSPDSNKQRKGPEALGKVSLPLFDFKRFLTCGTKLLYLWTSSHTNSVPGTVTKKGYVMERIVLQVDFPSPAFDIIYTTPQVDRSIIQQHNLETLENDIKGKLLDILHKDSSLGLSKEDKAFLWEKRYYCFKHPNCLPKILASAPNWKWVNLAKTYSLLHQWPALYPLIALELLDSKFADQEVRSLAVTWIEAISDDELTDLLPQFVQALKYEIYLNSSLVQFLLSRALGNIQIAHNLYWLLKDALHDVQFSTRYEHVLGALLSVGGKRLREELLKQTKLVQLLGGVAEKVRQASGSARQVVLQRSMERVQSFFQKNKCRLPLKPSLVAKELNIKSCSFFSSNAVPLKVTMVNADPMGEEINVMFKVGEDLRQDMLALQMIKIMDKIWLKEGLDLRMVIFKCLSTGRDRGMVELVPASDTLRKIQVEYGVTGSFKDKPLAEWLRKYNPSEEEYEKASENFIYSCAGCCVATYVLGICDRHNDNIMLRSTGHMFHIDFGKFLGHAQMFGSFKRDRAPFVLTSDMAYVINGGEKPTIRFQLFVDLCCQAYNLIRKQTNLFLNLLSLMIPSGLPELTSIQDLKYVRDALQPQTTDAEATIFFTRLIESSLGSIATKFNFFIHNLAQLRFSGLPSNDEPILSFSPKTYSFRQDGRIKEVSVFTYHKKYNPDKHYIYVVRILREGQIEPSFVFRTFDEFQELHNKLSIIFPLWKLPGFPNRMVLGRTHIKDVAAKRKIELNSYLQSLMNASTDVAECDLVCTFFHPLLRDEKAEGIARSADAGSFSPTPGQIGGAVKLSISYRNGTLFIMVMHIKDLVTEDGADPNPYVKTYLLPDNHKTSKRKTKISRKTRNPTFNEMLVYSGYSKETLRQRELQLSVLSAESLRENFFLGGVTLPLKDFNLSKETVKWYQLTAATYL
Test [3] deals with off-target kinases (Homo sapiens, UniProt Q9UM73, F1174L). The conditions noted are these: ALK F1174L, mutant y, LanthaScreen Binding. On the technique in general: In TR-FRET formats the signal depends on donor and acceptor labels being close together.
Sequence of off-target kinases (Homo sapiens, UniProt Q9UM73, F1174L) (Q9UM73 19-1620 F1174L): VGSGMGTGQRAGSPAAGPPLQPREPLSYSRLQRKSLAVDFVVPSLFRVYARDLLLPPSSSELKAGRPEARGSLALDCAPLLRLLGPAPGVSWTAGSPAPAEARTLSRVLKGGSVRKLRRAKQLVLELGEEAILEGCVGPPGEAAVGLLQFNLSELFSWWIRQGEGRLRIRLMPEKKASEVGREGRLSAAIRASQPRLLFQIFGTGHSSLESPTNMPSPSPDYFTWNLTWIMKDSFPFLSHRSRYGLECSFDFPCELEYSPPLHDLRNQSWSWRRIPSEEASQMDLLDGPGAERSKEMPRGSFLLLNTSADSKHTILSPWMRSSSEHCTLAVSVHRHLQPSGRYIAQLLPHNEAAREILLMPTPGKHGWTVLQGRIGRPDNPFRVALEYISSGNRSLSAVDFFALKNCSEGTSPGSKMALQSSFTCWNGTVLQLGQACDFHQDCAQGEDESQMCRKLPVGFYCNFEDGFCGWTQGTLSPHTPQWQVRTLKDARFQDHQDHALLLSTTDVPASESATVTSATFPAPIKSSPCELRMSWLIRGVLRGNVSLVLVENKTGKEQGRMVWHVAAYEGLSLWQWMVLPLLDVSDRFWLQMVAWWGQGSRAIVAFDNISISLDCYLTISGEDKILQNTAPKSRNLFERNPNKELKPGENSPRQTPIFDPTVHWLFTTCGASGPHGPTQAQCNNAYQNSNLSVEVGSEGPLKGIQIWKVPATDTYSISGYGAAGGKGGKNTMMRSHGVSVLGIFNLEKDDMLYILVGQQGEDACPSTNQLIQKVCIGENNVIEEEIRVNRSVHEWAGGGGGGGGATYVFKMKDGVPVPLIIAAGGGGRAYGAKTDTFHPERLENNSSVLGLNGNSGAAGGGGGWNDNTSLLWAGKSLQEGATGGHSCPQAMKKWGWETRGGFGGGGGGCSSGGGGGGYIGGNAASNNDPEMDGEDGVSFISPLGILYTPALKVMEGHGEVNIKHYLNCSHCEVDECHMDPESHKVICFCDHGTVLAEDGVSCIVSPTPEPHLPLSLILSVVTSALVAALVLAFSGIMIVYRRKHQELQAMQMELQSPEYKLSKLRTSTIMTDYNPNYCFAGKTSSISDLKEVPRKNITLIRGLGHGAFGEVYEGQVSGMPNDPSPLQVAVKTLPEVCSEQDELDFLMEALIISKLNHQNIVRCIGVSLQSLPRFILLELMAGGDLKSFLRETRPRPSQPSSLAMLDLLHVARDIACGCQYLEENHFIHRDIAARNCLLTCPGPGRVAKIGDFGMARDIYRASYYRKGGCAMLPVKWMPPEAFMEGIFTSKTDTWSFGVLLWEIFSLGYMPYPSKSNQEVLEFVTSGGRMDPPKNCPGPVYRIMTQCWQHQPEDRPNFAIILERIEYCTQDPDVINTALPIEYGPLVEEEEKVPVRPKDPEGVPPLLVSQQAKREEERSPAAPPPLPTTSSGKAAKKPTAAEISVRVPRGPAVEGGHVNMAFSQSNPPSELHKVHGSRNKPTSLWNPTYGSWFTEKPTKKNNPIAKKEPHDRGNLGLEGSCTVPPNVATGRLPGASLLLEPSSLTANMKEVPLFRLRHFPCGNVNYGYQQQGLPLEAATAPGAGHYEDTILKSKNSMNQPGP
The target in test [4] is off-target kinases (Homo sapiens, UniProt P68400). The settings on record: CSNK2A1 (CK2 alpha 1), ZLYTE, ATP Km app.
Sequence of off-target kinases (Homo sapiens, UniProt P68400) (P68400 whole entry): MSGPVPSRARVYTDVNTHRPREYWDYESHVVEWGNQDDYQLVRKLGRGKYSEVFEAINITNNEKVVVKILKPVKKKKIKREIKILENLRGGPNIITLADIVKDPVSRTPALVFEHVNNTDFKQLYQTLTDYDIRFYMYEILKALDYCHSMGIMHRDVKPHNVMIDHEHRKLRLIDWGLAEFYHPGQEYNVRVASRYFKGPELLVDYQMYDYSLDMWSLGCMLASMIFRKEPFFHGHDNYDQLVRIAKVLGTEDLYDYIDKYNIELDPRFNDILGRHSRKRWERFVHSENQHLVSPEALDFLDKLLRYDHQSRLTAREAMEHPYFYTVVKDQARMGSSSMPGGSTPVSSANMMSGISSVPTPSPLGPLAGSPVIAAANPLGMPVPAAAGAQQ
Test [5] concerns the target T1, off-target kinases (Homo sapiens, UniProt Q04771).
T1 sequence (Q04771 21-509): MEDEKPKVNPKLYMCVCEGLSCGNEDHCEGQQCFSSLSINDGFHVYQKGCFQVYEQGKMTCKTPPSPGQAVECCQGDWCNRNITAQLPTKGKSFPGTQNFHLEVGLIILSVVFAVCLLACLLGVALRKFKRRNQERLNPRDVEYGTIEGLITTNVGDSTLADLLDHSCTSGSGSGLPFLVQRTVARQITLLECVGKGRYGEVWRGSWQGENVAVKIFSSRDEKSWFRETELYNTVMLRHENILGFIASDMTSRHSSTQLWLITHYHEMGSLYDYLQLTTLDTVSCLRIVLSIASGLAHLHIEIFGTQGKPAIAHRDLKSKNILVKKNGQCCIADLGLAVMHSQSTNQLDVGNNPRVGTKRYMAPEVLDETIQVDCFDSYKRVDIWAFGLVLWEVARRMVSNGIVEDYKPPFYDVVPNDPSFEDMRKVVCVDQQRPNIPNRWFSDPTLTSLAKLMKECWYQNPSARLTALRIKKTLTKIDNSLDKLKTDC
The conditions noted are these: ACVR1 (ALK2), LanthaScreen Binding.

Test [6] concerns the target T2, off-target kinases (Homo sapiens, UniProt O15111).
T2 sequence (O15111 1-745): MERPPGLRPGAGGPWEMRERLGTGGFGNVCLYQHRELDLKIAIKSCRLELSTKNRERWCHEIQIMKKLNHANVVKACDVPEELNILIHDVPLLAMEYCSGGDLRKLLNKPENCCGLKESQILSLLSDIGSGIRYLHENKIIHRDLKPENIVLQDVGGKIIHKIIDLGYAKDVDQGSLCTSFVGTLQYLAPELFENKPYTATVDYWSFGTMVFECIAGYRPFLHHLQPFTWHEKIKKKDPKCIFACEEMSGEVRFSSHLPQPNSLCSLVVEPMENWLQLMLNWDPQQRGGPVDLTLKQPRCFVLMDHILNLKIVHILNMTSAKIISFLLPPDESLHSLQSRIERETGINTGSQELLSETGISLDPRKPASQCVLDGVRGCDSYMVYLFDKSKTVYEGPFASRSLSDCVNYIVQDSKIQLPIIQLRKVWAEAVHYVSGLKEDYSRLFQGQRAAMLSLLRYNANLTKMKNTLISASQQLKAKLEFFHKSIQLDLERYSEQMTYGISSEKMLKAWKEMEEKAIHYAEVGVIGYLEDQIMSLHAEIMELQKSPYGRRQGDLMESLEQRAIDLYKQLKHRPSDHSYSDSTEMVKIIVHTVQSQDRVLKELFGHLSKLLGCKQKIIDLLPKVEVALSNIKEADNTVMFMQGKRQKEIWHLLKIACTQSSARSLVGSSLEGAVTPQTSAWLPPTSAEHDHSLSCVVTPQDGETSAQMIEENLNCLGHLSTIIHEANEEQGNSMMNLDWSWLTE
The settings on record: CHUK (IKK alpha), ATP Km app, Adapta.

Usually inhibition stands for the drop in the measured response relative to a control, in per cent. Take `N#Cc1cc(-c2ncnc(Nc3ccc(N4CCN(C5COC5)CC4)cc3)n2)ccc1OC1CCOCC1` [Compound 1, 5-(4-((4-(4-(oxetan-3-yl)piperazin-1-yl)phenyl)amino)-1,3,5-triazin-2-yl)-2-((tetrahydro-2H-pyran-4-yl)oxy)benzonitrile]: the inhibition in test [1] (read-out: % Inhibition 1) amounted to 52%; in test [1] (read-out: % Inhibition 2) it was 41%; in test [1] (read-out: % Inhibition Avg), 46%; in test [3] (read-out: % Inhibition 1), 12%; in test [3] (read-out: % Inhibition 2), 14%; in test [3] (read-out: % Inhibition Avg), 13%. The inhibition is 13% in test [4] (read-out: % Inhibition 1); 7% in test [4] (read-out: % Inhibition 2); 10% in test [4] (read-out: % Inhibition Avg); 85% in test [5] (read-out: % Inhibition 1); 84% in test [5] (read-out: % Inhibition 2); 84% in test [5] (read-out: % Inhibition Avg). Further, the inhibition was determined as 65% in test [6] (read-out: % Inhibition 1), 50% in test [6] (read-out: % Inhibition 2) and 58% in test [6] (read-out: % Inhibition Avg). In addition, in test [2], the “% Inhibition 1” value was −7%. Also, the “% Inhibition 2” value in test [2] is reported as −9%. For the same compound, in test [2], the “% Inhibition Avg” value is given as −8%.
